Calls of active or inactive are those of the source. The calls are words filed in the database; no cut-off is given here.

One test deals with TK-10. The test is described as follows: Antiproliferative activity against human TK10 cells at 10'5 M. Format: functional.
Another test relates to RPMI-8226. Nature of the test: (§1) Antiproliferative activity against human RPMI8226 cells at 10'5 M. Format: functional.
The subject of another test is Malme-3M. The test is described as follows: Antiproliferative activity against human MALME-3M cells at 10'5 M. The test is classed as functional.
The next test concerns IGROV-1. Nature of the test: Antiproliferative activity against human IGROV1 cells at 10'5 M. Format: functional.
Another test relates to CCRF-CEM. The test is described as follows: Antiproliferative activity against human CCRF-CEM cells at 10'5 M. Format: functional.
For another test, the system named is PC-3. The test is described as follows: Antiproliferative activity against human PC3 cells at 10'5 M. The test is classed as functional.
A further test relates to OVCAR-4. Nature of the test: Antiproliferative activity against human OVCAR4 cells at 10'5 M. Format: functional.
The subject of another test is K562. The test is described as follows: Antiproliferative activity against human K562 cells at 10'5 M. The test is classed as functional.
In a further test the test system is MOLT-4. The test is described as follows: Antiproliferative activity against human MOLT4 cells at 10'5 M. Format: functional.
The test system of a further test is NCI/ADR-RES. Nature of the test: Antiproliferative activity against human NCI-ADR-RES cells at 10'5 M. The test is classed as functional.
A further test concerns DU-145. Nature of the test: Antiproliferative activity against human DU145 cells at 10'5 M. The test is classed as functional.
The test system of another test is Hs-578T. The test is described as follows: Antiproliferative activity against human Hs 578T cells at 10'5 M. The test is classed as functional.
A further test has as its system SR. Nature of the test: Antiproliferative activity against human SR cells at 10'5 M. The test is classed as functional.
The subject of another test is HCC 2998. Nature of the test: Antiproliferative activity against human HCC2998 cells at 10'5 M. The test is classed as functional.
The next test has as its system SK-OV-3. The test is described as follows: Antiproliferative activity against human SKOV3 cells at 10'5 M. The test is classed as functional.
For another test, the system named is SNB-75. Nature of the test: Antiproliferative activity against human SNB75 cells at 10'5 M. Format: functional.
In a further test the test system is NCI-H460. Nature of the test: Antiproliferative activity against human NCI-H460 cells at 10'5 M. Format: functional.
A further test concerns MCF7. Nature of the test: Antiproliferative activity against human MCF7 cells at 10'5 M. Format: functional.
A further test concerns HCT-116. The test is described as follows: (§2) Antiproliferative activity against human HCT116 cells at 10'5 M. The test is classed as functional.
Test [1] in a line: as §1. Format: functional, RPMI-8226.
The nature of test [2]: as §2. The test is classed as functional, HCT-116.

For the compound `O=C(/C=C/c1ccccc1)n1c(-c2ccccc2)nc2ccccc21`, the result in the test with TK-10, in the test with RPMI-8226, in the test on Malme-3M, in the test with IGROV-1, in the test with CCRF-CEM and in the test with PC-3 was inactive. Moreover, the outcome in the test with OVCAR-4, in the test on K562, in the test on MOLT-4, in the test on NCI/ADR-RES, in the test on DU-145 and with Hs-578T was inactive. The outcome in the test on SR, in the test on HCC 2998, in the test on SK-OV-3, in the test on SNB-75, in the test with NCI-H460 and in the test on MCF7 was inactive. Moreover, in the test on HCT-116, the result was inactive.
In the case of `O=C(/C=C/c1ccccc1)n1c(-c2ccccc2O)nc2ccccc21`, the result in the test on TK-10, with RPMI-8226, in the test with Malme-3M, in the test with IGROV-1, in the test on CCRF-CEM and with PC-3 was inactive. The result in the test with OVCAR-4, with K562, in the test with MOLT-4, in the test with NCI/ADR-RES, in the test on DU-145 and in the test on Hs-578T was inactive. For the same compound, the outcome in the test with SR, with HCC 2998, with SK-OV-3, with SNB-75, in the test with NCI-H460 and in the test with MCF7 was inactive. In addition, the result in the test with HCT-116 was inactive.
For the compound `O=C(/C=C/c1ccccc1)n1c(-c2ccc(O)cc2)nc2ccccc21`, the result in the test on TK-10, with RPMI-8226, in the test on Malme-3M, with IGROV-1, in the test with CCRF-CEM and with PC-3 was inactive. The result in the test on OVCAR-4, in the test on K562, in the test with MOLT-4, with NCI/ADR-RES, in the test with DU-145 and with Hs-578T was inactive. Moreover, the result in the test with SR, in the test on HCC 2998, in the test on SK-OV-3, with SNB-75, in the test on NCI-H460 and with MCF7 was inactive. The result in the test on HCT-116 was inactive.
`Cc1ccc2nc[nH]c2c1`: the “growth inhibition (GI)” value is 88.17% in [1]; 60.81% in the test with CCRF-CEM; 84.7% in the test on SR; 73.43% in the test with MCF7; 64.84% in test [2].
For the compound `Cc1cc2ncn(C(=O)/C=C/c3ccccc3)c2cc1C`, the outcome with TK-10, in the test on RPMI-8226, in the test with Malme-3M, with IGROV-1, in the test on CCRF-CEM and in the test with PC-3 was inactive. In addition, the result in the test on OVCAR-4, in the test with K562, with MOLT-4, with NCI/ADR-RES, in the test with DU-145 and in the test with Hs-578T was inactive. Moreover, the outcome in the test on SR, with HCC 2998, in the test on SK-OV-3, with SNB-75, in the test on NCI-H460 and in the test on MCF7 was inactive. The result in the test with HCT-116 was inactive.
For `Cc1nc2ccccc2n1C(=O)/C=C/c1ccccc1`, the outcome in the test on TK-10, in the test with RPMI-8226, with Malme-3M, with IGROV-1, with CCRF-CEM and with PC-3 was inactive. Besides, the outcome in the test with OVCAR-4, in the test on K562, with MOLT-4, in the test on NCI/ADR-RES, in the test with DU-145 and in the test on Hs-578T was inactive. In addition, the result with SR, with HCC 2998, with SK-OV-3, in the test on SNB-75, with NCI-H460 and with MCF7 was inactive. Also, in the test on HCT-116, the outcome was inactive.
As to `Cc1ccc2ncn(C(=O)/C=C/c3ccccc3)c2c1`, the result with TK-10, in the test with RPMI-8226, in the test with Malme-3M, with IGROV-1, with CCRF-CEM and with PC-3 was inactive. In addition, the result with OVCAR-4, in the test on K562, in the test on MOLT-4, in the test with NCI/ADR-RES, in the test with DU-145 and with Hs-578T was inactive. Also, the result in the test on SR, with HCC 2998, in the test on SK-OV-3, with SNB-75, in the test on NCI-H460 and with MCF7 was inactive. In addition, in the test with HCT-116, the outcome was inactive.
With `COc1ccc(-c2nc3ccccc3n2C(=O)/C=C/c2ccccc2)cc1`, the result in the test with TK-10, in the test on RPMI-8226, in the test with Malme-3M, in the test with IGROV-1, with CCRF-CEM and in the test with PC-3 was inactive. In addition, the outcome in the test with OVCAR-4, in the test on K562, in the test on MOLT-4, in the test on NCI/ADR-RES, in the test with DU-145 and with Hs-578T was inactive. In addition, the outcome in the test on SR, with HCC 2998, in the test on SK-OV-3, in the test on SNB-75, in the test with NCI-H460 and in the test with MCF7 was inactive. Also, the result with HCT-116 was inactive.
On to `Cc1cc2nc[nH]c2cc1C` [DIMEDAZOL], for which the “growth inhibition (GI)” value in [1] stood at 63.61%; with CCRF-CEM it was 64.66%; in the test with SR, 64.66%; with MCF7 it was 69.59%.

The values above are taken from ChEMBL document CHEMBL3769371, “1-[(2E)-3-Phenylprop-2-enoyl]-1H-benzimidazoles as anticancer agents: synthesis, crystal structure analysis and binding studies of the most potent anticancer molecule with serum albumin” (Medchemcomm, 2015).
